Test results: patent publication US20250163044A1, “COMPOUNDS” (PSYLO PTY LTD, priority 2021, published 2025)

Assays:
Format in all cases: cell-based
[1] = target: T1, 5-HT2A receptor (Homo sapiens, UniProt P28223); assay: FLIPR Ca2+ flux functional assay, agonist activity at 5-HT2A; conditions: HEK293 cells, Ca2+ flux; for EC50: read-out: 5-HT2A EC50
T1 construct: host or cells: HEK293
Experimental: (§1) Activity at 5-HT2A, 5-HT2B and 5-HT2C receptors was determined using a FLIPR Ca2+ flux assay at WuXi AppTec Co. Ltd. (Hong Kong) Discovery Biology Unit according to their standard protocols. Briefly, stably transfected cells expressing the receptor of interest (HEK293 for 5-HT2A and 5-HT2C; CHO-K1 for 5-HT2B) were grown and plated in a 384 well plate and incubated at 37° C. and 5% CO2 overnight. A 250 mM stock solution of probenecid in FLIPR calcium assay buffer (10 mL) was freshly prepared and combined with a fluorescent dye (Fluo-4 Direct) to give a final assay concentration of 2.5 mM. Reference compounds were 4-fold serially diluted and the screening compounds were 3-fold serially diluted in 100% DMSO for 10 points using Agilent Bravo, and 750 nL was added to a 384 well compound plate using Echo along with 30 μL assay buffer. The fluorescent dye was then added to the assay plate along with assay buffer to a final volume of 40 μL. The cell plate was incubated for 50 min at 37° C. and 5% CO2 and placed into the FLIPR Tetra along with the compound plate. 10 μL of references and compounds were then transferred from the compound plate into the cell plate and the fluorescent signal was read.

[2] = target: T2, 5-HT2B receptor (Homo sapiens, UniProt P41595); assay: FLIPR Ca2+ flux functional assay, agonist activity at 5-HT2B; conditions: CHO-K1 cells, Ca2+ flux; for EC50: read-out: 5-HT2B EC50
T2 construct: host or cells: CHO-K1
Experimental: as §1

[3] = target: T3, 5-HT2C receptor (Homo sapiens, UniProt P28335); assay: FLIPR Ca2+ flux functional assay, agonist activity at 5-HT2C; conditions: HEK293 cells, Ca2+ flux; for EC50: read-out: 5-HT2C EC50
T3 construct: host or cells: HEK293
T3 sequence (P28335 33-458): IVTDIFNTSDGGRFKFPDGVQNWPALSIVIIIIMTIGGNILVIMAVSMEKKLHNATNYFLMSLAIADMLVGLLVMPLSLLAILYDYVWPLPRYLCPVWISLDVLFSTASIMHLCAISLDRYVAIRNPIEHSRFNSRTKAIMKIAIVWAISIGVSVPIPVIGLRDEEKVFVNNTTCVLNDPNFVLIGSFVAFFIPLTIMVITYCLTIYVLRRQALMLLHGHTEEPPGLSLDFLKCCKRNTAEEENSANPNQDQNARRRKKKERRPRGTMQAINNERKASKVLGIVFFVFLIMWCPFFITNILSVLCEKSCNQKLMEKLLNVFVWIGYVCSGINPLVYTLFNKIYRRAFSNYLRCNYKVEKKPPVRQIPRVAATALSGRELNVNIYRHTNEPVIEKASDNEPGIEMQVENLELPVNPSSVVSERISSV
Experimental: as §1

T2 sequence (P41595 whole entry): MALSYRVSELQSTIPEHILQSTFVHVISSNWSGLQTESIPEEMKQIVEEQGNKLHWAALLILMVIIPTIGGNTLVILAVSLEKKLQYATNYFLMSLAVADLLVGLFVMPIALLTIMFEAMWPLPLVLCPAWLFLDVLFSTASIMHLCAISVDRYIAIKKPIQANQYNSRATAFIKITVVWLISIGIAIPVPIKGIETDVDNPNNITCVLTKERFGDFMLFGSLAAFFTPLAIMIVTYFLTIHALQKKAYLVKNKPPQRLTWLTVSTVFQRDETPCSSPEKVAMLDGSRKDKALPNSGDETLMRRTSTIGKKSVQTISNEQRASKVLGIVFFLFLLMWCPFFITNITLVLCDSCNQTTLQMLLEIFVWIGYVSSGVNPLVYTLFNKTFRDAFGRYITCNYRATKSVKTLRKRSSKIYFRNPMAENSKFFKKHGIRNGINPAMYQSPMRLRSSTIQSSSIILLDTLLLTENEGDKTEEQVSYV
T1 sequence (P28223 whole entry): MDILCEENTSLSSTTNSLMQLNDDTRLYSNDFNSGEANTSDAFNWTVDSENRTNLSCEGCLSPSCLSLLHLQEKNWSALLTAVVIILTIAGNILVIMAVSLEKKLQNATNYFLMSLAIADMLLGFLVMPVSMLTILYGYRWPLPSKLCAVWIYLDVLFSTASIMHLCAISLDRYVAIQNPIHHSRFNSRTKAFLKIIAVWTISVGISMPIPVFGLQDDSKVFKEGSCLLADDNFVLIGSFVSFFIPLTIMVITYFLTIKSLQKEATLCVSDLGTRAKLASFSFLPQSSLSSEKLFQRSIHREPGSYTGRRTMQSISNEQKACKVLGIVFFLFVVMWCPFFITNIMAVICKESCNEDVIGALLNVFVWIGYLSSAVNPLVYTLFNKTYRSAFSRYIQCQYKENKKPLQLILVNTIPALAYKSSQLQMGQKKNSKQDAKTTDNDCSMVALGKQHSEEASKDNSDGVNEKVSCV

| Structure (SMILES) | EC50 [1] | EC50 [2] | EC50 [3] | Emax [1] | Emax [2] | Emax [3] |
| --- | --- | --- | --- | --- | --- | --- |
| COc1ccc2[nH]nc(CCN(C)C(C)C)c2c1 [Example P-52, N-(2-(5-methoxy-1H-indazol-3-yl)ethyl)-N-methylpropan-2-amine] | 1.84 µM | > 10 µM | > 10 µM |  |  |  |
| CCCN(CCC)CCc1c[nH]c2ccc(OC)nc12 [Example P-11, 2-(5-methoxy-1H-pyrrolo[3,2-b]pyridin-3-yl)-N,N-dipropylethan-1-amine] | 0.00417 µM | 0.0522 µM | 0.0911 µM | 99.1% | 92.1% | 96.3% |
| CCN(C)CCc1c[nH]c2ccnc(C)c12 [Example P-40] | > 10 µM |  |  | 0.75% |  |  |
| CN(C)CCc1c[nH]c2nccc(F)c12 [Example P-32, N,N-dimethyl-2-(4-fluoro-1H-pyrrolo[2,3-b]pyridin-3-yl)ethan-1-amine] | 0.414 µM | > 10 µM | > 10 µM | 57.8% | 0.14% | 0.61% |
| CCN(C)CCc1c[nH]c2ncc(F)cc12 [Example P-25, N-ethyl-N-methyl-2-(5-fluoro-1H-pyrrolo[2,3-b]pyridin-3-yl)ethan-1-amine] | 0.109 µM | > 10 µM | > 10 µM | 70.3% | 8.23% | 21% |
| CCN(CC)CCc1n[nH]c2cccc(OC)c12 [Example P-42, 2-(4-methoxy-1H-indazol-3-yl)-N,N-diethylethan-1-amine] | 2.98 µM | > 10 µM | 3.49 µM |  |  |  |
| CN(C)CCc1n[nH]c2ccccc12 [Example P-7] | > 10 µM | > 10 µM | 2.34 µM |  |  |  |
| Cc1ccnc2[nH]cc(CCN(C)C)c12 [Example P-30, N,N-dimethyl-2-(4-methyl-1H-pyrrolo[2,3-b]pyridin-3-yl)ethan-1-amine] | 0.387 µM | > 10 µM | > 10 µM | 56.6% | 0.03% | 1.04% |
| CCN(C)CCc1c[nH]c2ncc(C)cc12 [Example P-23, N-ethyl-N-methyl-2-(5-methyl-1H-pyrrolo[2,3-b]pyridin-3-yl)ethan-1-amine] | 1.24 µM | > 10 µM | > 10 µM | 55% | 0.88% | -0.04% |
| CCN(C)CCc1c[nH]c2nccc(F)c12 [Example P-33, N-ethyl-N-methyl-2-(4-fluoro-1H-pyrrolo[2,3-b]pyridin-3-yl)ethan-1-amine] | 0.641 µM | > 10 µM | > 10 µM | 54.7% | 0.01% | 0.33% |
| COc1ccc2[nH]cc(CCN(C)C(C)C)c2n1 [Example P-14, N-(2-(5-methoxy-1H-pyrrolo[3,2-b]pyridin-3-yl)ethyl)-N-methylpropan-2-amine] | 0.021 µM | > 10 µM | 0.139 µM | 78.9% | 1.06% | 98.3% |
| CCCN(CCC)CCc1c[nH]c2ncc(OC)cc12 [Example P-18, 2-(5-methoxy-1H-pyrrolo[2,3-b]pyridin-3-yl)-N,N-dipropylethan-1-amine] | 0.0855 µM | > 10 µM | > 10 µM | 89.4% | 9.35% | -0.33% |
| CCN(CC)CCc1n[nH]c2cccc(O)c12 [Example P-43, 3-(2-(diethylamino)ethyl)-1H-indazol-4-ol] | 2.18 µM | > 10 µM | > 10 µM |  |  |  |
| COc1ccnc2[nH]cc(CCN(C)C(C)C)c12 [Example P-29, N-(2-(4-methoxy-1H-pyrrolo[2,3-b]pyridin-3-yl)ethyl)-N-methylpropan-2-amine] | 0.555 µM | > 10 µM | > 10 µM | 71.6% | 0.59% | 0.48% |
| Cc1cnc2[nH]cc(CCN(C)C)c2c1 [Example P-22, N,N-dimethyl-2-(5-methyl-1H-pyrrolo[2,3-b]pyridin-3-yl)ethan-1-amine] | 0.691 µM | > 10 µM | > 10 µM | 55.5% | 1.91% | 0.27% |
| CN(C)CCc1n[nH]c2cccc(O)c12 [Example P-6] |  | > 10 µM | > 10 µM |  |  |  |
| CCN(CC)CCc1c[nH]c2ncc(OC)cc12 [Example P-17, 2-(5-methoxy-1H-pyrrolo[2,3-b]pyridin-3-yl)-N,N-diethylethan-1-amine] | 0.279 µM | > 10 µM | > 10 µM | 84.7% | 0.37% | -0.53% |
| CCCN(CCC)CCc1n[nH]c2ccc(OC)cc12 [Example P-49, N,N-dipropyl-2-(5-methoxy-1H-indazol-3-yl)ethan-1-amine] | 1.39 µM | > 10 µM | > 10 µM |  |  |  |
| COc1ccc2[nH]cc(CCN(C(C)C)C(C)C)c2n1 [Example P-12, N-isopropyl-N-(2-(5-methoxy-1H-pyrrolo[3,2-b]pyridin-3-yl)ethyl)propan-2-amine] | 0.00696 µM | 0.0222 µM | 0.2 µM | 85.7% | 102% | 110% |
| CCN(CC)CCc1c[nH]c2ccnc(OC)c12 [Example P-34, N,N-diethyl-2-(4-methoxy-1H-pyrrolo[3,2-c]pyridin-3-yl)ethan-1-amine] | 0.15 µM | > 10 µM | 0.682 µM | 82.6% | 14.7% | 91.7% |
| COc1cccc2[nH]nc(CCN(C)C)c12 [Example P-55, 2-(4-methoxy-1H-indazol-3-yl)-N,N-dimethylethan-1-amine] | 0.256 µM | > 10 µM | 0.367 µM |  |  |  |
| CCN(C)CCc1n[nH]c2ccc(OC)cc12 [Example P-51, N-ethyl-2-(5-methoxy-1H-indazol-3-yl)-N-methylethan-1-amine] | 0.526 µM | > 10 µM | > 10 µM |  |  |  |
| CN(C)CCc1c[nH]c2ncc(F)cc12 [Example P-24, N,N-dimethyl-2-(5-fluoro-1H-pyrrolo[2,3-b]pyridin-3-yl)ethan-1-amine] | 0.0808 µM | > 10 µM | > 10 µM | 56.5% | 6.16% | 24.7% |
| COc1ccnc2[nH]cc(CCN(C(C)C)C(C)C)c12 [Example P-27, N-isopropyl-N-(2-(4-methoxy-1H-pyrrolo[2,3-b]pyridin-3-yl)ethyl)propan-2-amine] | 0.857 µM | > 10 µM | > 10 µM | 80.2% | 35.6% | 0.54% |
| CCN(C)CCc1c[nH]c2ccnc(OC)c12 [Example P-37, N-ethyl-2-(4-methoxy-1H-pyrrolo[3,2-c]pyridin-3-yl)-N-methylethan-1-amine] | 0.0868 µM | > 10 µM | 0.533 µM | 82.8% | 2.6% | 105% |
| CCN(CC)CCc1n[nH]c2ccc(OC)cc12 [Example P-48, N,N-diethyl-2-(5-methoxy-1H-indazol-3-yl)ethan-1-amine] | 6.99 µM | > 10 µM | > 10 µM |  |  |  |
| Cc1nccc2[nH]cc(CCN(C)C)c12 [Example P-39] | > 10 µM |  |  | 1.47% |  |  |
| COc1nccc2[nH]cc(CCN(C(C)C)C(C)C)c12 [Example P-36, N,N-diisopropyl-2-(4-methoxy-1H-pyrrolo[3,2-c]pyridin-3-yl)ethan-1-amine] | 0.0771 µM | 0.0964 µM | > 10 µM | 114% | 48.9% | 38.4% |
| CCN(C)CCc1c[nH]c2ccc(OC)nc12 [Example P-13, N-ethyl-2-(5-methoxy-1H-pyrrolo[3,2-b]pyridin-3-yl)-N-methylethan-1-amine] | 0.0101 µM | > 10 µM | 0.0319 µM | 79.6% | 2.25% | 95.8% |
| CCN(C)CCc1c[nH]c2ncc(OC)cc12 [Example P-20, N-ethyl-2-(5-methoxy-1H-pyrrolo[2,3-b]pyridin-3-yl)-N-methylethan-1-amine] | 0.0933 µM | > 10 µM | > 10 µM | 76.7% | 1.38% | -0.08% |
